Experimental data as given in patent US5047418A, “Method of stimulating histamine H3 -receptors” (Smith Kline & French Laboratories Limited, priority 1989, dated 1991).

Assays:
histamine H3 -receptor = target: T1, histamine H3 -receptor (Cavia porcellus, UniProt Q9JI35); experiment: Inhibition of electrically evoked twitch responses of guinea-pig ileum (histamine H3-agonist activity); settings: read-out: EC50 (concentration of compound which caused 50% inhibition of the twitch response)
T1 construct: twitch responses of the guinea-pig ileum; from tissue; host or cells: guinea-pig ileum (isolated, electrically stimulated, organ bath)
T1 sequence (Q9JI35 whole entry): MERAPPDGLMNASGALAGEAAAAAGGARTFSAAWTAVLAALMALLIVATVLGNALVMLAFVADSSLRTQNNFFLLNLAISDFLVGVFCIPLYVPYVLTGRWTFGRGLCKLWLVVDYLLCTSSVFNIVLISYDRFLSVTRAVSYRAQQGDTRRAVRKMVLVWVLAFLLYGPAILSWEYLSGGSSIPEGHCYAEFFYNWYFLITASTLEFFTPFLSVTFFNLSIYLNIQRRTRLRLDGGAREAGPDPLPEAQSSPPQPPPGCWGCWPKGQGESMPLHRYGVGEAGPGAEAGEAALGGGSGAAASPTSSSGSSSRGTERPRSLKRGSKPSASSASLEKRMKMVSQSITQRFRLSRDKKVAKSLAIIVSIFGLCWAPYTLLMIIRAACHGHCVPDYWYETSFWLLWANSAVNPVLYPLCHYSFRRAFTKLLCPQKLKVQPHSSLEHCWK
Method: Inhibition of the electrically evoked twitch responses of the guinea-pig ileum by histamine H3 -receptor agonists was studied by addition of graded concentrations of the compound (in volumes of 25 μl or 79 μl) to the organ bath in a sequential manner. Each concentration of agonist was washed out of the bath when the response had reached equilibrium. A four minute period was allowed between each addition of the compound.

histamine H2 -receptor [1] = target: T2, histamine H2 -receptor (Cavia porcellus, UniProt P47747); experiment: Histamine H2-antagonist activity on guinea-pig atrium; settings: read-out: pA2 (histamine H2 -antagonist activity) (converted)
T2 construct: On the guinea-pig atrium; from tissue; host or cells: guinea-pig atrium (isolated tissue)
T2 sequence (P47747 whole entry): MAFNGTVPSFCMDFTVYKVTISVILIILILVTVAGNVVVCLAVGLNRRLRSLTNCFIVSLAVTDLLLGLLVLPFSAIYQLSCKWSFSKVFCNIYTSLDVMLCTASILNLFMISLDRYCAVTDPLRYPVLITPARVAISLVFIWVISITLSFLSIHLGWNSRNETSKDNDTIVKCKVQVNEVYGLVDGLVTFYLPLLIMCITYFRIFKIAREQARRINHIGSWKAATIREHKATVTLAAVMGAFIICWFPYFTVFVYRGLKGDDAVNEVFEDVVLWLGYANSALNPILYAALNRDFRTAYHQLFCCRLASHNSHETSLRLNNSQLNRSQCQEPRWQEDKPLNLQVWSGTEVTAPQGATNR

histamine H1 -receptor [2] = target: T3, histamine H1 -receptor (Cavia porcellus, UniProt P31389); experiment: Histamine H1-agonist activity on guinea-pig ileum
T3 sequence (P31389 whole entry): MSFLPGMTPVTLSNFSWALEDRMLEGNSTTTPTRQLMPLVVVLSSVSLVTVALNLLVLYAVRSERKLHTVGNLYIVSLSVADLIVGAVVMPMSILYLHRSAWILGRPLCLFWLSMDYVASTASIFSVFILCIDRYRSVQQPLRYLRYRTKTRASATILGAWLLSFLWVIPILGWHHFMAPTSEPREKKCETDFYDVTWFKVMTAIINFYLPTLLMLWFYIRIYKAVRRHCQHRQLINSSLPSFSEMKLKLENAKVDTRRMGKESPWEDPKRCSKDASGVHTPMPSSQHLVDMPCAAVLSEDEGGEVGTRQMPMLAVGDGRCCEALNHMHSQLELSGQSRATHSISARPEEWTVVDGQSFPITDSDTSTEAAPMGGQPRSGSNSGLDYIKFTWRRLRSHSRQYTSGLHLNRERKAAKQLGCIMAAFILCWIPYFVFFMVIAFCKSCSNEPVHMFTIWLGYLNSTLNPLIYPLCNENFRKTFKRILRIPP
Method: (§1) The activity of the compounds of the formula (1) at the histamine H1 - or H2 -receptor was assessed substantially as described by Parsons et al., Agents and Actions, 1976, 7(1), 31.

histamine H2 -receptor [3] = target: T2, histamine H2 -receptor; experiment: Histamine H2-agonist activity on guinea-pig atrium
Method: as §1

histamine H1 -receptor [4] = target: T3, histamine H1 -receptor; experiment: Histamine H1-antagonist activity on guinea-pig ileum
Method: as §1
On the guinea-pig ileum the compound of the formula (1) wherein X is CH2 had no histamine H1 -antagonist activity up to 10^-5 M.

Row | concentration at which histamine H2 -agonist activity is demonstrated (histamine H2 -receptor [3]) | concentration at which histamine H1 -antagonist activity is demonstrated (histamine H1 -receptor [4]) | SMILES | EC50 (histamine H3 -receptor) | Kb (histamine H2 -receptor [1]) | concentration at which histamine H1 -agonist activity is demonstrated (histamine H1 -receptor [2])
1 | – | – | N=C(N)SCCc1c[nH]cn1 [X = S, S-[2-(4(5)-imidazolyl)ethyl]isothiourea] | 0.0046 µM | 79.4 µM | 10^-4 to 10^-3 M
2 | > 10^-5 M | > 10^-5 M | N=C(N)CCCc1c[nH]cn1 [X = CH2, 4-(4(5)-imidazolyl)butyramidine] | 0.0011 µM | ~251 µM | > 10^-5 M
